What was measured:
[1] = tested on: eggs of Isabrown laying hens; assay: Test Example 2: DHA, EPA, vitamin E content and Haugh unit of eggs during storage; type: in vivo, chicken; conditions: for EPA Content / Haugh Unit / Vitamin E Content / DHA Content: eggs after 4 months; for DHA Content: feed with fish oil and vitamin E
Protocol: Isabrown laying hens were bred in poultry houses of the windless vertical 2-shelf cage type. Seventeen poultry houses a to q (10,000 hens/poultry house) were set, and a field test concerning suppression of a decrease in highly unsaturated fatty acid content during storage of eggs laid by laying hens was carried out. […] In addition, the laying hens were fed with a feed prepared by adding 2 kg of a fish oil and 10 g of vitamin E to 100 kg of a cormnercially available feed for laying hens. In addition, the laying hens were allowed to take water ad libitum.
After 4 months from initiation of the test, 20 eggs each were collected from each poultry house. DHA content and EPA content of the eggs, as indices for highly unsaturated fatty acid, were determined on the day of collection for 10 of the eggs, and after 2 weeks of storage at 4° C. for the remaining 10 eggs, respectively. Vitamin E content and Haugh unit were also determined. A change in the DHA content, a change in the EPA content, a change in the vitamin E content, and a change in the Haugh unit are shown in Tables 12, 13, 14 and 15, respectively.

[2] = tested on: White Leghorn laying hens; assay: Test Example 1: field test on producibility of laying hens (liveability, egg production indices); type: in vivo, chicken; conditions: for Liveability: additive in feed entire breeding period; for Number of Eggs Produced / Weight of Produced Eggs: 30,000 hens/poultry house
Protocol: White Leghorn laying hens at 121 days of age were housed in poultry houses of the windless vertical 6-shelf cage type and bred therein for 1 year. Eighteen poultry houses A to R (30,000 hens/poultry house) were set, and a field test concerning improvement in producibility by laying hens was carried out.
The laying hens were fed with a commercially available formula feed for laying hens, and allowed to take water ad libitum.
As indices for the producibility, there were obtained a liveability, a rate of laying, each egg weight and a weight of eggs produced per day, each item being at 4 months after initiation of the test, and a total number of eggs produced and a total egg weight during the 4-month period from initiation of the test. The same items were also determined at 8 and 12 months after initiation of the test. […] In the following tables, the indications “4M, 8M, 12M” stand for 4 months, 8 months, and 12 months after initiation of the test, respectively.

[3] = tested on: eggs of White Leghorn laying hens; assay: Test Example 1: Haugh unit and vitamin E content of eggs during storage; type: in vivo, chicken; conditions: for Haugh Unit / Vitamin E Content: eggs collected after 4 months
Protocol: Here, the term “Haugh unit” mentioned above refers to an index showing an extent of deterioration of thick albumen and is defined as the numeral calculated using the equation: […]
wherein H is a height (mm) of thick albumen; and W is an egg weight (g).
Furthermore, after 4 months from initiation of the test, 20 eggs each were collected from each poultry house. Haugh unit and vitamin E content were determined on the day of collection for 10 of the eggs, and after 2 weeks of storage at 4° C. for the remaining 10 eggs, respectively.

[4] = tested on: White Cornish edible chickens; assay: Test Example 3: liveability and weekly body weight gain of edible chickens; type: in vivo, chicken
Description: (§1) White Cornish edible chickens were bred for 7 weeks from newly-hatched chickens. The hatched chickens were divided into 17 groups, the groups AA to QQ of 200 chickens per group. […] The edible chickens were fed with a commercially available formula feed for edible chickens, and allowed to take feed and water ad libitum. […] The liveability is shown in Table 17 and the weekly body weight gain in Table 18, respectively. […] Furthermore, changes in the TBA value and in the POV value of each of the breast meat, the leg meat and the chicken fat after storage were determined in the same manner. The cholesterol content is shown in Table 19, the change in the K value after storage in Table 20, the change in the TBA value after storage in Table 21, and the change in the POV value after storage in Table 22, respectively.

[5] = tested on: White Cornish edible chickens; assay: Test Example 3: cholesterol content of breast meat, leg meat and chicken fat; type: in vivo
Description: as §1

[6] = tested on: White Cornish edible chickens; assay: Test Example 3: K value, TBA value, POV value of chicken meat after storage; type: in vivo; conditions: for K Value of Chicken Meat after 10 Days of Storage: storage at 4° C.
Description: In the present invention, the expression “keeping freshness of chicken meat” refers to suppression of an increase during storage in a numerical value, such as K value (ratio of inosine and hypoxanthine content to the sum of ATP, ADP, AMP, IMP, inosine and hypoxanthine contents in chicken meat as expressed in percentage), VBN value (a total amount of volatile basic substances, such as ammonia and trimethylamine, in chicken meat), TMA value (trimethylamine content in chicken meat) and polyamine content (total amount of decarboxylated products of free amino acids, such as putrescine, cadaverine, agmatine, histamine, tyramine, tryptamine and spermidine, in chicken meat), metmyoglobin formation ratio (ratio of myoglobin oxidized to metmyoglobin in muscular tissue of chicken meat), TBA value (ratio of fatty acids oxidized to fatty acids in chicken meat), POV value (peroxide value: ratio of oil or fat oxidized in chicken meat), and bacterial cell count (number of bacterial cells in chicken meat). In the present invention, it is preferable that at least one selected from the group consisting of K value, TBA value and POV value is used as an index for keeping freshness of chicken meat. Because the K value is most generally used as an index for freshness, it is more preferable to use the K value as an index for keeping freshness of chicken meat. White Cornish edible chickens were bred for 7 weeks from newly-hatched chickens. The hatched chickens were divided into 17 groups, the groups AA to QQ of 200 chickens per group. […] The edible chickens were fed with a commercially available formula feed for edible chickens, and allowed to take feed and water ad libitum. […] The liveability is shown in Table 17 and the weekly body weight gain in Table 18, respectively. […] Furthermore, changes in the TBA value and in the POV value of each of the breast meat, the leg meat and the chicken fat after storage were determined in the same manner. The cholesterol content is shown in Table 19, the change in the K value after storage in Table 20, the change in the TBA value after storage in Table 21, and the change in the POV value after storage in Table 22, respectively.

[7] = After 2 Weeks of Storage at 4° C.
[8] = Immediately After Egg Production

(−)-epigallocatechin gallate
Effect on decrease in DHA, EPA, vitamin E content and Haugh unit during egg storage, in words ([1]; 2 weeks of storage at 4° C.): no effect was found | EPA Content [1, 7]: 84.0 mg based on 100 g of egg yolk solution | Haugh Unit [1, 7]: 80.9 | Vitamin E Content [1, 7]: 1.7 mg based on 100 g of egg yolk solution | EPA Content [1, 8]: 103.8 mg based on 100 g of egg yolk solution | Haugh Unit [1, 8]: 96.5 | Vitamin E Content [1, 8]: 3.0 mg based on 100 g of egg yolk solution | DHA Content [1, 7]: 1,344.0 mg based on 100 g of egg yolk solution | DHA Content [1, 8]: 1,493.1 mg based on 100 g of egg yolk solution | Each Egg Weight ([2]; 4M after initiation of test): 58.6 g | Rate of Egg Production ([2]; 4M after initiation of test): 92.3% | Weight of Eggs Produced Per Day ([2]; 4M after initiation of test): 53.97 g | Liveability ([2]; 4M after initiation of test): 98.90% | Number of Eggs Produced ([2]; 4M): 295,589 ct | Weight of Produced Eggs ([2]; 4M): 17,321.5 kg | Each Egg Weight ([2]; 8M after initiation of test): 61.7 g | Rate of Egg Production ([2]; 8M after initiation of test): 82.9% | Weight of Eggs Produced Per Day ([2]; 8M after initiation of test): 51.05 g | Liveability ([2]; 8M after initiation of test): 97.81% | Number of Eggs Produced ([2]; 8M): 714,941 ct | Weight of Produced Eggs ([2]; 8M): 44,111.9 kg | Each Egg Weight ([2]; 12M after initiation of test): 63.1 g | Rate of Egg Production ([2]; 12M after initiation of test): 72.9% | Weight of Eggs Produced Per Day ([2]; 12M after initiation of test): 47.68 g | Liveability ([2]; 12M after initiation of test): 95.02% | Number of Eggs Produced ([2]; 12M): 1,054,111 ct | Weight of Produced Eggs ([2]; 12M): 66,514.4 kg | Effect on producibility indices (liveability, rate of egg production, egg weight, eggs produced), in words ([2]; compared with poultry house Q given only an ordinary feed / houses H to R): an effect of addition of these additives was not found | Effect on decrease in Haugh unit and vitamin E content during egg storage, in words ([3]; 2 weeks of storage at 4° C.): no effect was found | Haugh Unit [3, 7]: 79.9 | Vitamin E Content [3, 7]: 2.0 mg based on 100 g of egg yolk solution | Haugh Unit [3, 8]: 98.0 | Vitamin E Content [3, 8]: 3.1 mg based on 100 g of egg yolk solution | Weekly Body Weight Gain ([4]; after breeding for 7 weeks): 462.5 g | Liveability ([4]; after breeding for 7 weeks, 200 chickens per group): 96.33% | Effect on liveability, weekly body weight gain, cholesterol content, K, TBA and POV values, in words ([4]; all indices of Test Example 3): no effect was found | Cholesterol Content ([5]; Breast Meat): 72.0 mg based on 100 g of chicken meat or chicken fat | Cholesterol Content ([5]; Chicken Fat): 227.6 mg based on 100 g of chicken meat or chicken fat | Cholesterol Content ([5]; Leg Meat): 86.0 mg based on 100 g of chicken meat or chicken fat | Change in POV Value after 10 Days Storage ([6]; Breast Meat): 1.52 | Change in TBA Value after 10 Days Storage ([6]; Breast Meat): 0.44 | K Value of Chicken Meat after 10 Days of Storage ([6]; Breast Meat): 55.3 | Change in POV Value after 10 Days Storage ([6]; Chicken Fat): 1.80 | Change in TBA Value after 10 Days Storage ([6]; Chicken Fat): 0.42 | Change in POV Value after 10 Days Storage ([6]; Leg Meat): 1.53 | Change in TBA Value after 10 Days Storage ([6]; Leg Meat): 0.40 | K Value of Chicken Meat after 10 Days of Storage ([6]; Leg Meat): 55.4
